Experiments:
[1] = target: MAGL (Mus musculus (Mouse), UniProt O35678); experiment: In vitro competitive activity-based protein profiling, MAGL (mouse); type: biochemical; conditions: for inhibition at 1 µM: read-out: MAGL % inh. 1 μM (mouse)
Procedure, shortened: (§1)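 Competitive ABPP; proteome 1.0 mg/mL total protein; mouse = brain membranes or cell lysates, human = prefrontal cortex or cell membranes. Inhibitor preinc 30 min, 37° C; FP-Rh/HT-01 (50 μM DMSO stock) 30 min, 37° C; SDS-PAGE, in-gel fluorescence of MAGL/FAAH bands.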

[2] = target: FAAH (Mus musculus (Mouse), UniProt O08914); experiment: In vitro competitive activity-based protein profiling, FAAH (mouse); type: biochemical; conditions: for inhibition at 1 µM: read-out: FAAH % inh. 1 μM (mouse)
FAAH, sequence (O08914 whole entry): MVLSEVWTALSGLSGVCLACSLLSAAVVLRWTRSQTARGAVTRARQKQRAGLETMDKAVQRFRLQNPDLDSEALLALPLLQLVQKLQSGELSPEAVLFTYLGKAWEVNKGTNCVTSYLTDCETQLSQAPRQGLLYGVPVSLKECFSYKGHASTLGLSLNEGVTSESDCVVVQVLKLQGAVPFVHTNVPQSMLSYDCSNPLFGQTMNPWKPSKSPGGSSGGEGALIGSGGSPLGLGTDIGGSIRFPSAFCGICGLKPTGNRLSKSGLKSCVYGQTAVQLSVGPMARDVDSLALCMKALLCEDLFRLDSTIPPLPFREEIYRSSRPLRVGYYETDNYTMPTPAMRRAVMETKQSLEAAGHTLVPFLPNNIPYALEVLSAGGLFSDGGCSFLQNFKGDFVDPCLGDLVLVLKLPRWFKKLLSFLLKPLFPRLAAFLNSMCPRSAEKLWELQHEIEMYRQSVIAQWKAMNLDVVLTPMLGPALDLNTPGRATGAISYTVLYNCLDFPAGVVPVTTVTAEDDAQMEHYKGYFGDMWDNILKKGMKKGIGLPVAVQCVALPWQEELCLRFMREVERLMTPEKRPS
Procedure, shortened: as §1

MAGL, sequence (O35678 whole entry): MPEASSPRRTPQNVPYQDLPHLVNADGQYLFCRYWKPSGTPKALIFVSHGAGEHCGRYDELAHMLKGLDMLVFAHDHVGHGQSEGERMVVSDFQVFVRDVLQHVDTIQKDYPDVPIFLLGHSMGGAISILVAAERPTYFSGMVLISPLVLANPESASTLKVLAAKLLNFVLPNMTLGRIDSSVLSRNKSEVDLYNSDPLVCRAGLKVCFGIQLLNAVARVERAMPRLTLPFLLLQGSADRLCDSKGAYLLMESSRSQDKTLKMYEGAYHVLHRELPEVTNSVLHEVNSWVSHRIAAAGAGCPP

SMILES	inhibition at 1 µM [1] [%]	inhibition at 1 µM [2] [%]	IC50 [1] [nM]	IC50 [2] [nM]
CC(=O)N(C)c1cnn(C(=O)N2C[C@H]3C[C@H](N(C)Cc4cc(N5C6CCC5COC6)cc(C(F)(F)F)c4)C[C@H]3C2)c1 [Example 157, N-(1-(trans-5-((3-(3-oxa-8-azabicyclo[3.2.1]octan-8-yl)-5-(trifluoromethyl)benzyl)(methyl)amino)octahydrocyclopenta[c]pyrrole-2-carbonyl)-1H-pyrazol-4-yl)-N-methylacetamide]	≥ 75	≥ 75	–	–
CC(=O)N(C)c1cnn(C(=O)N2CCC3(CCN(Cc4cc(N5CCOCC5)cc(C(F)(F)F)c4)C3)C2)c1 (stereo not drawn) [Example 68, N-methyl-N-(1-(7-(3-morpholino-5-(trifluoromethyl)benzyl)-2,7-diazaspiro[4.4]nonane-2-carbonyl)-1H-pyrazol-4-yl)acetamide]	≥ 75	≥ 75	100 to 1000	≤ 100
CC(=O)N(C)c1cnn(C(=O)N2CC3(CCN(Cc4ccccc4C)CC3)C2)c1 [Example 89, N-methyl-N-(1-(7-(2-methylbenzyl)-2,7-diazaspiro[3.5]nonane-2-carbonyl)-1H-pyrazol-4-yl)acetamide]	25 to 50	25 to 50	–	–
CC(=O)N(C)c1cnn(C(=O)N2CC3CN(Cc4cc(N5CCCC5)ccc4C(F)(F)F)CC3C2)c1 (stereo not drawn) [Example 127, N-methyl-N-(1-(5-(5-(pyrrolidin-1-yl)-2-(trifluoromethyl)benzyl)octahydropyrrolo[3,4-c]pyrrole-2-carbonyl)-1H-pyrazol-4-yl)acetamide]	≥ 75	≥ 75	–	–
CC(=O)N(C)c1cnn(C(=O)N2CC3(CCN(Cc4ccc(Cl)c(Cl)c4)CC3)C2)c1 [Example 18, N-(1-(7-(3,4-dichlorobenzyl)-2,7-diazaspiro[3.5]nonane-2-carbonyl)-1H-pyrazol-4-yl)-N-methylacetamide]	25 to 50	≥ 75	–	–
CC(=O)N(C)c1cnn(C(=O)N2CCN(Cc3ccc(C(F)(F)F)cc3)CC2)c1 [Example 198, N-methyl-N-(1-(4-(4-(trifluoromethyl)benzyl)piperazine-1-carbonyl)-1H-pyrazol-4-yl)acetamide]	≥ 75	≥ 75	–	100 to 1000
CC(=O)N(C)c1cnn(C(=O)N2CC3CN(Cc4ccc(N5CCCC5)cc4Cl)CC3C2)c1 (stereo not drawn) [Example 132, N-(1-(5-(2-chloro-4-(pyrrolidin-1-yl)benzyl)octahydropyrrolo[3,4-c]pyrrole-2-carbonyl)-1H-pyrazol-4-yl)-N-methylacetamide]	≥ 75	≥ 75	–	–
CC(=O)N(C)c1cnn(C(=O)N2CCC3(CCN(Cc4ccc(Cl)c(Cl)c4)C3)C2)c1 (stereo not drawn) [Example 1, N-(1-(7-(3,4-dichlorobenzyl)-2,7-diazaspiro[4.4]nonane-2-carbonyl)-1H-pyrazol-4-yl)-N-methylacetamide]	≥ 75	≥ 75	100 to 1000	≤ 100
CC(=O)N(C)c1cnn(C(=O)N2CC3CN(Cc4ccc(Cl)c(N5CCOCC5)c4)CC3C2)c1 (stereo not drawn) [Example 129, N-(1-(5-(4-chloro-3-morpholinobenzyl)octahydropyrrolo[3,4-c]pyrrole-2-carbonyl)-1H-pyrazol-4-yl)-N-methylacetamide]	≥ 75	≥ 75	–	–
CC(=O)N(C)c1cnn(C(=O)N2C[C@H]3C[C@H](N(C)Cc4ccc(N5C6CCC5COC6)c(C(F)(F)F)c4)C[C@H]3C2)c1 [Example 156, N-(1-(trans-5-((4-(3-oxa-8-azabicyclo[3.2.1]octan-8-yl)-3-(trifluoromethyl)benzyl)(methyl)amino)octahydrocyclopenta[c]pyrrole-2-carbonyl)-1H-pyrazol-4-yl)-N-methylacetamide]	≥ 75	≥ 75	100 to 1000	≤ 100

The next lines start with the values.

inhibition at 1 µM [1] [%]	inhibition at 1 µM [2] [%]	IC50 [1] [nM]	IC50 [2] [nM]	SMILES
≥ 75	≥ 75	–	–	CC(=O)Nc1cnn(C(=O)N2CCN(Cc3cc(Cl)ccc3C(F)(F)F)CC2)c1 [Example 314, N-(1-(4-(5-chloro-2-(trifluoromethyl)benzyl)piperazine-1-carbonyl)-1H-pyrazol-4-yl)acetamide]
≥ 75	≥ 75	≤ 100	≤ 100	CC(=O)N(C)c1cnn(C(=O)N2CC3CN(Cc4ccc(N5CCCC5)c(Cl)c4)CC3C2)c1 (stereo not drawn) [Example 123, N-(1-(5-(3-chloro-4-(pyrrolidin-1-yl)benzyl)octahydropyrrolo[3,4-c]pyrrole-2-carbonyl)-1H-pyrazol-4-yl)-N-methylacetamide]
≥ 75	≥ 75	≤ 100	≤ 100	CC(=O)N(C)c1cnn(C(=O)N2CC3CN(Cc4cc(C(F)(F)F)cc(C(F)(F)F)c4)CC3C2)c1 (stereo not drawn) [Example 116, N-(1-(5-(3,5-bis(trifluoromethyl)benzyl)octahydropyrrolo[3,4-c]pyrrole-2-carbonyl)-1H-pyrazol-4-yl)-N-methylacetamide]
≥ 75	≥ 75	–	–	CC(=O)N(C)c1cnn(C(=O)N2CCC3(CC2)CN(Cc2cccc(C)c2)C3)c1 [Example 36, N-methyl-N-(1-(2-(3-methylbenzyl)-2,7-diazaspiro[3.5]nonane-7-carbonyl)-1H-pyrazol-4-yl)acetamide]
50 to 75	≥ 75	–	–	CN(Cc1ccc(N2CCCC2)cc1C(F)(F)F)[C@H]1C[C@@H]2CN(C(=O)n3cc(NS(C)(=O)=O)cn3)C[C@@H]2C1 [Example 282, N-(1-(trans-5-(methyl(4-(pyrrolidin-1-yl)-2-(trifluoromethyl)benzyl)amino)octahydrocyclopenta[c]pyrrole-2-carbonyl)-1H-pyrazol-4-yl) methanesulfonamide]
≥ 75	≥ 75	–	–	CC(=O)N(C)c1cnn(C(=O)N2C[C@H]3C[C@H](NCc4ccc(Cl)cc4)C[C@H]3C2)c1 [Example 138, N-(1-(trans-5-(4-chlorobenzylamino)octahydrocyclopenta[c]pyrrole-2-carbonyl)-1H-pyrazol-4-yl)-N-methylacetamide]
50 to 75	50 to 75	–	–	COc1cccc(CN2CC3(CCN(C(=O)n4cc(N(C)C(C)=O)cn4)CC3)C2)c1 [Example 37, N-(1-(2-(3-methoxybenzyl)-2,7-diazaspiro[3.5]nonane-7-carbonyl)-1H-pyrazol-4-yl)-N-methylacetamide]
≥ 75	≥ 75	≤ 100	≤ 100	CC(=O)N(C)c1cnn(C(=O)N2CC3CN(Cc4ccc5c(c4)OC(F)(F)O5)CC3C2)c1 (stereo not drawn) [Example 242, N-(1-(5-((2,2-difluorobenzo[d][1,3]dioxol-5-yl)methyl)octahydropyrrolo[3,4-c]pyrrole-2-carbonyl)-1H-pyrazol-4-yl)-N-methylacetamide]
≥ 75	≥ 75	≤ 100	≤ 100	CC(=O)N(C)c1cnn(C(=O)N2CCN(Cc3ccccc3C(F)(F)F)CC2)c1 [Example 214, N-methyl-N-(1-(4-(2-(trifluoromethyl)benzyl)piperazine-1-carbonyl)-1H-pyrazol-4-yl)acetamide]
≥ 75	≥ 75	100 to 1000	≤ 100	CC(=O)N(C)c1cnn(C(=O)N2CCC3(CCN(Cc4ccc(-c5ccncn5)cc4Cl)C3)C2)c1 (stereo not drawn) [Example 273, N-(1-(7-(2-chloro-4-(pyrimidin-4-yl)benzyl)-2,7-diazaspiro[4.4]nonane-2-carbonyl)-1H-pyrazol-4-yl)-N-methylacetamide]
50 to 75	25 to 50	–	–	CC(=O)N(C)c1cnn(C(=O)N2CC3(CCN(Cc4ccc(C)cc4)CC3)C2)c1 [Example 87, N-methyl-N-(1-(7-(4-methylbenzyl)-2,7-diazaspiro[3.5]nonane-2-carbonyl)-1H-pyrazol-4-yl)acetamide]
≥ 75	≥ 75	≤ 100	≤ 100	CC(=O)N(C)c1cnn(C(=O)N2CC3CN(Cc4ccc(N5CCCC5)cc4C(F)(F)F)CC3C2)c1 (stereo not drawn) [Example 93, N-methyl-N-(1-(5-(4-(pyrrolidin-1-yl)-2-(trifluoromethyl)benzyl)octahydropyrrolo[3,4-c]pyrrole-2-carbonyl)-1H-pyrazol-4-yl)acetamide]
≥ 75	25 to 50	–	–	CC(=O)N(C)c1cnn(C(=O)N2CCC3(CC2)CN(Cc2cccc(N4CCOCC4)c2)C3)c1 [Example 39, N-methyl-N-(1-(2-(3-morpholinobenzyl)-2,7-diazaspiro[3.5]nonane-7-carbonyl)-1H-pyrazol-4-yl)acetamide]
≥ 75	≥ 75	100 to 1000	100 to 1000	CC(=O)N(C)c1cnn(C(=O)N2CCC3(CCN(Cc4c(Cl)cccc4Cl)C3)C2)c1 (stereo not drawn) [Example 49, N-(1-(7-(2,6-dichlorobenzyl)-2,7-diazaspiro[4.4]nonane-2-carbonyl)-1H-pyrazol-4-yl)-N-methylacetamide]
≥ 75	≥ 75	100 to 1000	100 to 1000	CC(=O)N(C)c1cnn(C(=O)N2CCN(Cc3cccc(F)c3)CC2)c1 [Example 205, N-(1-(4-(3-fluorobenzyl)piperazine-1-carbonyl)-1H-pyrazol-4-yl)-N-methylacetamide]
≥ 75	50 to 75	–	–	CC(=O)N(C)c1cnn(C(=O)N2CCC3(CCN(Cc4cc(C(F)(F)F)ccc4N4CCCC4)C3)C2)c1 (stereo not drawn) [Example 74, N-methyl-N-(1-(7-(2-(pyrrolidin-1-yl)-5-(trifluoromethyl)benzyl)-2,7-diazaspiro[4.4]nonane-2-carbonyl)-1H-pyrazol-4-yl)acetamide]
